In patent US20100166737A1, “P38Alpha as a Therapeutic Target in Bladder Carcinoma” (INSTITUT CURIE, priority 2007, published 2010):

How the values were obtained:
MGH-U3 xenograft = MGH-U3 xenograft growth in athymic nude mice; type: in vivo; conditions: intratumoral, daily, 100 μl of 20 μM, up to 25 days; FIG. 2D
Experimental: Ten six-week-old female Swiss nu/nu mice were raised in the animal facilities of the Curie Institute in specified pathogen-free conditions. Their care and housing were in accordance with the institutional guidelines of the French National Ethics Committee (Ministere de l'Agriculture et de la Forêt, Direction de la Santë et de la Protection Animate, Paris, France) and were supervised by authorised investigators. Each mouse was injected subcutaneously in each flank (dorsal region) with 4×10^6 cells/site. When tumours reached 50 mm^3 (+/−10), mice were randomly separated into two group of 5 mice. 100 μl of 20 μM SB203580 or equal volume of PBS were administrated daily in tumours. Tumour formation was monitored for up to 25 days and the size of tumours was measured with Vernier calipers: two perpendicular diameters were used to estimate tumour volumes by the formule ab^2/2, where a is the largest and b the smallest diameter.

MGH-U3 cells = test: Soft agar assay, anchorage-independent growth of MGH-U3 cells; type: cell-based, human; conditions: 14 days; FIG. 2C
Experimental: (§1) For NIH-3T3, 30,000 transfected cells were added, in triplicate, to each well of a 12-well plate containing DMEM supplemented with 10% NCS and solidified with agar. For MGH-U3, 20,000 non-transfected or siRNA-transfected cells were added, to triplicate wells of 12-well plates containing MEM supplemented with 10% FCS and agar. When necessary, both cell types were cultured in the presence or absence of different inhibitors in agar and in culture medium. The same amount of inhibitor was added to the culture medium weekly.
(§2) The plates were incubated for 21 or 14 days for NIH-3T3 and MGH-U3 cells respectively, and colonies with diameters greater than 50 μm were then scored as positive, using a phase-contrast microscope equipped with a measuring grid.

[1] = tested on: FGFR3-S249C-expressing cells (S249C1.2); test: Soft agar assay of FGFR3-S249C-expressing NIH-3T3 cells; type: cell-based; conditions: 21 days, colonies greater than 50 μm; FIG. 1D
Experimental: as §1, §2

[2] = tested on: NIH-3T3 cell line transfected by mutated FGFR3-S249C; conditions: AACR abstract April 2005; cited from earlier work
[3] = tested on: control mice basal epidermal cells; test: BrdU labelling, basal epidermal cell proliferation in control littermate mice; type: in vivo; conditions: 100 μM SB203580 on snout daily during 2 weeks, FIG. 3D
Experimental: (§3) Transgenic mice (K5-FGFR3-S249C) expressing mutated receptor FGFR3b— S249C in basal cells of the epidermis were established previously (Logi& et al 2005, Hum. Mol. Genet. 14, 1153-1160). 40 μl of 100 μM SU5402 or of 100 μM SB203580 or of vehicule (acetone) were applied daily during 2 weeks on snout of 3 to 4 months old transgenic mice who had developed epidermal tumours on snout or of control littermates mice. Two hours prior sacrifice mice were injected (i.p), with 0.25 mg/g body weight Brdu (Sigma, Saint-Quentin Falavier, France). Brdu immunohistochemistry was performed on parafine embed snout tissue with BrdU in situ detection kit (BD Pharmingen, San Diego, Calif., USA) according to the manufacturer's instructions. The number of BrdU-labeled cells among 500 cells from basal epidermis layer was determined for each mouse. Total snout cells lysate (75 μg) were analyzed as described above using antibodies against p38 and phospho-p38 (Pp38).

[4] = tested on: NIH-3T3 cell line transfected by mutated FGFR3-S249C; conditions: AACR abstract April 2005; cited from earlier work; remark: listed apart in the source
[5] = tested on: FGFR3-S249C-expressing NIH-3T3 cells (clone S249C1.2); test: Morphology analysis of FGFR3-S249C-expressing NIH-3T3 cells; type: cell-based; conditions: 30 μM, 48 h; FIG. 1C
Experimental: (§4) NIH-3T3 cells were cultured 48 h in presence of different inhibitors, SB203580 and SU5402 (Calbiochem, Merck Eurolab, Fontenay Sous Bois, France), and pictures were taken using a phase-contrast microscope.

[6] = tested on: transgenic mice tumor cell proliferation; test: BrdU labelling, snout tumour cell proliferation in K5-FGFR3-S249C transgenic mice; type: in vivo; conditions: 100 μM SB203580 on snout daily during 2 weeks; FIG. 3D
Experimental: as §3

NIH-3T3 control cells = test: Morphology analysis of NIH-3T3 control cells; type: cell-based; conditions: data not shown
Experimental: as §4

[7] = tested on: p38 phosphorylation in MGH-U3 cells; test: Immunoblot of p38 phosphorylation in MGH-U3 cells; type: cell-based, human; conditions: 30 μM SU5402, 24 hours; FIG. 2A
Experimental: (§5) Transfected NIH-3T3 cells were washed once with PBS and serum-starved for 24 h. Where required, cells were stimulated for 5 min with 20 ng/ml FGF1 in the presence of 50 μg/ml heparin at 37° C. They were then lysed in lysis buffer (50 mM Tris-HCl (pH 7.4), 150 mM NaCl, 1% NP-40, 0.25% sodium deoxycholate, 1 mM EDTA, 1 mM Na3VO4, 5 mM NaF, 1 μ/ml aprotinin, 1 μg/ml leupeptin and 1 μg/ml pepstatin) and the lysates were clarified by centrifugation. The protein concentrations of the supernatants were determined with the Biorad Bradford Protein Assay Kit (BioRad, Ivry sur Seine, France). Proteins from total cell lysates (75 μg protein) were resolved by SDS-PAGE on 10% polyacrylamide gels, electrotransferred to Immobilon-P membrane in 25 mM Tris, pH 8.3, 200 mM glycine, 10% ethanol and analyzed using antibodies against p38 (#9212), Aid (#9272), p42/p44 (#9102) and the phosphorylated forms of these proteins (phospho AKT (Thr308) #9275; phospho p42/p44 (thr202/tyr204) # 9101; phospho p38 (thr180/tyr182) (cell signaling Technology, Ozyme, Montigny le Bretonneux, France)
MGH-U3 total cell lysates (75 μg) were analyzed similarly using antibodies against p38, phospho-p38 and Akt.

[8] = tested on: p38 phosphorylation in FGFR3-S249C expressing NIH-3T3 clones; test: Immunoblot of p38 phosphorylation in FGFR3-S249C expressing NIH-3T3 clones; type: cell-based; conditions: 30 μM SU5402, 24 hours; clones S249C1.1 and S249C1.2; FIG. 1B
Experimental: as §5

[9] = tested on: p38 phosphorylation in transgenic mice snout; test: Immunoblot of p38 phosphorylation in snout of K5-FGFR3-S249C transgenic mice; type: in vivo; conditions: 100 μM SU5402 on snout daily during 2 weeks; FIG. 3C
Experimental: as §3

Row | SMILES | MGH-U3 xenograft growth (MGH-U3 xenograft) | colonies on soft agar relative to control cells (MGH-U3 cells) | ability to form colonies in a soft agar assay [1] | transformed phenotype of the cells [2] | basal epidermal cells proliferation (BrdU labelling) [3] | abilities to form colonies in soft agar [4] | transformed phenotype (morphology) [5] | tumor cell proliferation (BrdU labelling) [6] | effect on the control cell phenotype (NIH-3T3 control cells) | p38 phosphorylation [7] | p38 phosphorylation [8] | p38 phosphorylation [9]
1 | C[S+]([O-])c1ccc(-c2nc(-c3ccncc3)c(-c3ccc(F)cc3)[nH]2)cc1 (stereo not drawn) [SB203580] | significantly reduced | one third | inhibited | inhibits | no effect | inhibits | reverted | significant decreased | no effect | – | – | –
2 | Cc1c[nH]c(/C=C2\C(=O)Nc3ccccc32)c1CCC(=O)O [SU5402] | – | – | inhibited | – | – | – | reverted | – | no effect | suppressed | inhibited | decreased
